Laboratory results published in US11406709B2, “Therapeutic and research application of PDCL3” (TRUSTEES OF BOSTON UNIVERSITY, priority 2014, dated 2022).
Structures can show the parent of a compound that is named as a salt. Residues, ends and D or L forms follow the SMILES beside them. *: point of attachment. Cbz = O=C(OCc1ccccc1)*

Assays:
PDCL3 = target: T1, PDCL3 (Homo sapiens, UniProt Q9H2J4); experiment: High throughput screening of LOPAC1280 for small molecule inhibitors of PDCL3; details: LOPAC1280, 1,280 pharmacologically active compounds
T1 sequence (Q9H2J4 1-239): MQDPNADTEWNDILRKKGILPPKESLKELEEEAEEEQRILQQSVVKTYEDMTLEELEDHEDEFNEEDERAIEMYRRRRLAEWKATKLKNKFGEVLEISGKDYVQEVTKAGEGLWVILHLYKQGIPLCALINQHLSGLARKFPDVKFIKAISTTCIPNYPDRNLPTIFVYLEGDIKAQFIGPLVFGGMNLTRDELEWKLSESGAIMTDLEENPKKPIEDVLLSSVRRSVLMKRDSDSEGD
Description: (§1) Given that PDCL3 plays a fundamental role in maturation and folding of receptor tyrosine kinases (RTKs), such as VEGFR-2, and considering that activity of these RTKs are cornerstone of tumor growth and metastasis, it was decided to screen for small molecule inhibitors that could antagonize PDCL3 function in tumor cells. LOPAC1280 (a library of Pharmacologically Active Compounds), which is a collection of 1,280 pharmacologically active compounds, was used. The library is most commonly used to validate new drug discovery assays and characterize orphan targets. 16 lead compounds were identified as PDCL3 inhibitors and their potency and efficacy in inhibition of PDCL3 was validated. The structures of these 16 lead compounds, namely, Reserpine, DAPH, AC-93253 iodide, Emodin, Sunitinib malate, GW2974, Urapidil Hydrochloride, Mecamylamine hydrochloride, (−)-MK-801 hydrogen maleate, AGK2, Tyrphostin AG 112, Tyrphostin 23, Tyrphostin 51, I-Ome-Tyrophostin AG 538, and Isoliquiritgenin are provided herein at FIG. 14B.
as §1, with “validated. […] Chemical formulas for” for “validated. The structures of”, “these compounds” for “these 16 lead compounds, namely, Reserpine, DAPH, AC-93253 iodide, Emodin, Sunitinib malate, GW2974, Urapidil Hydrochloride, Mecamylamine hydrochloride, (−)-MK-801 hydrogen maleate, AGK2, Tyrphostin AG 112, Tyrphostin 23, Tyrphostin 51, I-Ome-Tyrophostin AG 538, and Isoliquiritgenin”, “herein in” for “herein at”

VEGFR-2 [1] = experiment: Cycloheximide-chase / VEGF-induced downregulation of VEGFR-2; assay type: cell-based; details: PAE cells, cycloheximide 20 μg/ml, 90 min
Protocol: FIG. 2A. Illustrated is the schematic of treatment of cells with cycloheximide (CHX) and VEGF. PAE cells co-expressing VEGFR-2 with empty vector (pMSCV) or PDCL3 were incubated with CHX for 90 minutes followed by stimulation with VEGF for indicated times. Whole cell lysates was blotted for VEGFR-2 and loading control protein, PLCγ1. FIG. 2B. Shown are the quantification of the half-life of mature VEGFR-2 and pre-mature VEGFR-2 based on the VEGFR-2 blot from the panel FIG. 2A. FIGS. 2C-2D. PAE cells co-expressing VEGFR-2 with empty vector (pMSCV) or PDCL3 were stimulated with VEGF for indicated times and whole cell lysates were processed as panel FIG. 2A.
PAE cells expressing VEGFR-2 alone or together with PDCL3 were serum-starved for overnight followed by incubation of cells with serum-free DMEM medium containing cycloheximide (20 μg/ml, 90 min). Cells then were stimulated with VEGF for various times to downregulate cell surface VEGFR-2. Cells were lysed and whole cell lysates was blotted for VEGFR-2 using anti-VEGFR-2 antibody. For measuring half-life of PDCL3 and HA-tagged mutant PDCL3, cells were incubated with serum-free DMEM medium containing cycloheximide (20 μg/ml) for indicated times and cells were lysed and whole cell lysates was blotted for PDCL3.

VEGFR-2 [2] = experiment: In vitro transcription/translation of VEGFR-2; assay type: biochemical
Protocol: FIG. 1A. HEK-293 cells expressing VEGFR-2 were transfected with different concentrations of C-terminus Myc-tagged PDCL3. After 48 hours cells were lysed and whole cell lysates (WCL) were blotted for VEGFR-2, PDCL3 and Hsp70 for loading control. Quantification of premature (newly synthesized and partially glycosylated VEGFR-2 corresponding to lower molecular weight) and mature (fully glycosylated) forms of VEGFR-2 is shown. Mean results of three independent experiments are shown. *P=0.04 and […]. FIG. 1B. Human umbilical vein endothelial cells (HUVECs) were transfected with control siRNA or PDCL3-siRNA. After 48 hours cells serum-starved for overnight followed by stimulation with VEGF for 10 minutes. Cells were lysed and whole cell lysates were blotted for phospho-Y1054-VEGFR-2, total VEGFR-2, PDCL3 and Hsp70 for loading control. FIG. 1C. Thermo-induced aggregation of VEGFR-2 was measured using PSA dye as described in the materials and method section. FIG. 1D. In vitro transcription/translation of VEGFR-2 in the absence or presence of exogenous recombinant PDCL3 was performed as described in the materials and method section and schematic of the procedure is shown. FIG. 1E. In vitro translated VEGFR-2 protein in the absence or presence of exogenous recombinant PDCL3 was blotted for VEGFR-2. FIG. 1F. […]

Structure (SMILES)	identified as PDCL3 inhibitor / specifically targeting PDCL3 (PDCL3)	other results
CC12NC(Cc3ccccc31)c1ccccc12.O=C(O)/C=C/C(=O)O (single isomer, unassigned; (-)) [(−)-MK-801 hydrogen maleate, 1-Methyl-16-azatetracyclo[7.6.1.02,7.010,15]hexadeca-2,4,6,10,12,14-hexaene (2E)-2-butenedioate (1:1)]	identified as specifically targeting PDCL3	–
CC[n+]1c(/C=C/C=C2/N(C)c3ccccc3C2(C)C)sc2ccccc21.[I-] [AC-93253 iodide, 3-Ethyl-2-[(1E,3E)-3-(1,3,3-trimethyl-1,3-dihydro-2H-indol-2-ylidene)-1-propen-1-yl]-1,3-benzothiazol-3-ium iodide]	identified as specifically targeting PDCL3	–
N#C/C(=C\c1ccc(-c2cc(Cl)ccc2Cl)o1)C(=O)Nc1cccc2ncccc12 [AGK2, (2E)-2-Cyano-3-[5-(2,5-dichlorophenyl)-2-furyl]-N-(5-quinolinyl)acrylamide]	identified as specifically targeting PDCL3	–
C[C@@H]1C[C@@H]([C@H](O)CC2CC(=O)NC(=O)C2)C(=O)[C@@H](C)C1 [Cycloheximide]	–	VEGFR-2 protein synthesis (VEGFR-2 [1]): inhibited VEGFR-2 protein synthesis
O=C1NC(=O)c2cc(Nc3ccccc3)c(Nc3ccccc3)cc21 [DAPH, 5,6-Dianilino-1H-isoindole-1,3(2H)-dione]	identified as specifically targeting PDCL3	–
Cc1cc(O)c2c(c1)C(=O)c1cc(O)cc(O)c1C2=O [Emodin, 1,3,8-Trihydroxy-6-methyl-9,10-anthraquinone]	identified as specifically targeting PDCL3	–
CN(C)c1cc2c(Nc3ccc4c(cnn4Cc4ccccc4)c3)ncnc2cn1 [GW2974, N4-(1-Benzyl-1H-indazol-5-yl)-N6,N6-dimethylpyrido[3,4-d]pyrimidine-4,6-diamine]	identified as specifically targeting PDCL3	–
COc1cc(C=C(C#N)C(=O)c2ccc(O)c(O)c2)cc(I)c1O [I-Ome-Tyrophostin AG 538, α-Cyano-(3-methoxy-4-hydroxy-5-iodocinnamoyl)-(3′,4′-dihydroxyphenyl)ketone]	identified as specifically targeting PDCL3	–
O=C(/C=C/c1ccc(O)cc1)c1ccc(O)cc1O [Isoliquiritgenin, (E)-1-(2,4-dihydroxyphenyl)-3-(4-hydroxyphenyl)prop-2-en-1-one]	identified as specifically targeting PDCL3	–
CC(C)C[C@@H](C=O)NC(=O)[C@H](CC(C)C)NC(=O)[C@H](CC(C)C)NC(=O)OCc1ccccc1 [MG132] (Cbz-Leu-Leu-Leu-aldehyde)	–	yield of in vitro translated VEGFR-2 (VEGFR-2 [2]): this effect of PDCL3 was further augmented
CNC1(C)C2CCC(C2)C1(C)C.Cl (centres unmarked) [Mecamylamine hydrochloride, N,2,3,3-Tetramethylbicyclo[2.2.1]heptan-2-amine hydrochloride (1:1)]	identified as specifically targeting PDCL3	–
COC(=O)[C@H]1[C@H]2C[C@@H]3c4[nH]c5cc(OC)ccc5c4CCN3C[C@H]2C[C@@H](OC(=O)c2cc(OC)c(OC)c(OC)c2)[C@@H]1OC [Reserpine, Methyl (3β,16β,17α,18β,20α)-11,17-dimethoxy-18-[(3,4,5-trimethoxybenzoyl)oxy]yohimban-16-carboxylate]	identified as specifically targeting PDCL3	–
CCN(CC)CCNC(=O)c1c(C)[nH]c(/C=C2\C(=O)Nc3ccc(F)cc32)c1C.O=C(O)C[C@H](O)C(=O)O [Sunitinib malate, (2S)-2-Hydroxysuccinic acid-N-[2-(diethylamino)ethyl]-5-[(Z)-(5-fluoro-2-oxo-1,2-dihydro-3H-indol-3-ylidene)methyl]-2,4-dimethyl-1H-pyrrole-3-carboxamide (1:1)]	identified as specifically targeting PDCL3	–
N#CC(C#N)=Cc1ccc(O)c(O)c1 [Tyrphostin 23, (3,4-Dihydroxybenzylidene)malononitrile]	identified as specifically targeting PDCL3	–
N#CC(C#N)=C(N)/C(C#N)=C/c1cc(O)c(O)c(O)c1 [Tyrphostin 51, (3Z)-2-Amino-4-(3,4,5-trihydroxyphenyl)-1,3-butadiene-1,1,3-tricarbonitrile]	identified as specifically targeting PDCL3	–
N#CC(C#N)=C(N)/C(C#N)=C/c1ccc(O)cc1 [Tyrphostin AG 112, (3Z)-2-Amino-4-(4-hydroxyphenyl)-1,3-butadiene-1,1,3-tricarbonitrile]	identified as specifically targeting PDCL3	–
COc1ccccc1N1CCN(CCCNc2cc(=O)n(C)c(=O)n2C)CC1 [Urapidil Hydrochloride, 6-({3-[4-(2-Methoxyphenyl)-1-piperazinyl]propyl}amino)-1,3-dimethyl-2,4(1H,3H)-pyrimidinedione]	identified as specifically targeting PDCL3	–
